Measurements published in article doi:10.1101/362830v1 (biorxiv, 2018).

Tests used:
Assay type in all cases: biochemical
D14 [1] = molecular target: T1, D14 (Oryza sativa, UniProt Q10QA5); test: inhibition of YLG hydrolysis, fluorescence
T1 sequence (Q10QA5 54-318): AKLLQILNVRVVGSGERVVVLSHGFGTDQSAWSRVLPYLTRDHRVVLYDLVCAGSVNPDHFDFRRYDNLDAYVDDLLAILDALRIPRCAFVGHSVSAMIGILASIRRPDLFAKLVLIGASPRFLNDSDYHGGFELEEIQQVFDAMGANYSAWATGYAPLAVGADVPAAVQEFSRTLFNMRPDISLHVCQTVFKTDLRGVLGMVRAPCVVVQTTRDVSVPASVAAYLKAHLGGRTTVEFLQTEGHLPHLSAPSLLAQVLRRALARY

ShHTL7 = molecular target: T2, ShHTL7 (Striga hermonthica, UniProt A0A0M3PNA2); test: inhibition of YLG hydrolysis, fluorescence
T2 sequence (A0A0M3PNA2 1-271): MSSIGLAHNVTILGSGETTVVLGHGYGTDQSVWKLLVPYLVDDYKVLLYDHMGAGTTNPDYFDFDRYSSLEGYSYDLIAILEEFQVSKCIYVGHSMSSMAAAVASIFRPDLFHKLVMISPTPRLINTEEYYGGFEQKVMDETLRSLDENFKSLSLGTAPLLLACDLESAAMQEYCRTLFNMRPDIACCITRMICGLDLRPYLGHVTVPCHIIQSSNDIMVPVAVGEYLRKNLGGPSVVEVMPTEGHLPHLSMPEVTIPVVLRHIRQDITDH

D14 [2] = molecular target: T1, D14; test: fluorogenic hydrolysis, ex […] nm, em […] nm; details: read-out: Km^YLG; 100 mM PBS pH 7.3, 0.1% DMSO, 30 °C; no inhibitor

| SMILES | IC50 (D14 [1]) [µM] | IC50 (ShHTL7) [µM] | Km (D14 [2]) [µM] |
| --- | --- | --- | --- |
| CC1=C[C@@H](O/C=C2/C(=O)O[C@@H]3c4ccccc4C[C@H]23)OC1=O [GR24] | 5.8 | 0.15 | – |
| CCOC(=O)c1ccccc1-c1c2ccc(=O)cc-2oc2cc(OC3C=C(C)C(=O)O3)ccc12 (centres unmarked) [Yoshimulactone Green] | – | – | 1.84 |
| O=C(N1CCc2ccccc21)n1ccnn1 [compound 26, indolin-1-yl(1H-1,2,3-triazol-1-yl)methanone] | 1.8 | – | – |
| O=C(N1CCc2ccccc21)n1nccn1 [compound 26, indolin-1-yl(2H-1,2,3-triazol-2-yl)methanone] | 7.9 | – | – |
